Measurements as given in patent US10583112B2, “Benzo[b]furans as bromodomain inhibitors” (GlaxoSmithKline Intellectual Property (No. 2) Limited, priority 2016, dated 2020).

Target: T1, BRD4 BD2 (Homo sapiens, UniProt O60885, Y97A)
T1 construct: BRD4 (1-477) (Y97A) and (Y390A); made in house; host or cells: E. coli (pET15b vector)
Assay: BRD4 BD2 TR-FRET competition assay
Assay type: binding
Conditions: mean where stated, n given; read-out: pIC50 in the BRD4 BD2 TR-FRET assay (converted)
Experimental: Bromodomain binding was assessed utilising a time resolved fluorescent resonance energy transfer (TR-FRET) competition assay. […] Europium chelate, conjugated to an anti-6*His antibody, was utilised as the donor fluorophore in the TR-FRET pair.
In order to generate a TR-FRET signal, donor fluorophore is excited by a laser at λ337 nm, which subsequently leads to emission at λ618 nm.
In order to monitor differential binding to either BD1 or BD2, single residue mutations of key tyrosines to alanine were made in the acetyl lysine binding pockets. To validate this approach, a double residue mutant tandem domain protein was produced for each of the BET family members.
Final purification was completed by Superdex 200 prep grade size exclusion column. Purified protein was stored at −80° C. in 20 mM HEPES pH 7.5 and 100 mM NaCl.
All assay components were dissolved in an assay buffer composing of 50 mM HEPES pH7.4, 50 mM NaCl, 5% Glycerol, 1 mM DTT and 1 mM CHAPS. […] An equal volume of 3 nM of anti-6*His Europium chelate was added to all wells, followed by a further 30 minute incubation at room temperature. TR-FRET was detected using a Perkin Elmer Multimode plate reader, by exciting the donor fluorophore at λ337 nm and subsequently, after a delay of 50 μsecs, measuring emission of the donor and acceptor fluorophores at λ615 nm and λ665 nm, respectively.
cA four parameter curve fit of the following form was then applied: y=a+((b−a)/(1+(10^x/10^c)^d) • Where ‘a’ is the minimum, ‘b’ is the Hill slope, ‘c’ is the pIC50 and ‘d’ is the maximum.

SMILES | IC50
CNC(=O)c1cc(C(=O)NCCOC)cc2c1O[C@H](CO)[C@H]2c1cccc(OC)c1 (relative stereo) [Example 34, (2S*,3S*)-2-(Hydroxymethyl)-N^5-(2-methoxyethyl)-3-(3-methoxyphenyl)-N^7-methyl-2,3-dihydrobenzofuran-5,7-dicarboxamide] | 1 to 100 µM
CNC(=O)c1cc(C(=O)NCC(C)O)cc2c1O[C@H](C)[C@H]2c1ccccc1 (stereo partly drawn) [Example 6, (2R,3S)—N^5-(2-Hydroxypropyl)-N^7,2-dimethyl-3-phenyl-2,3-dihydrobenzofuran-5,7-dicarboxamide] | 1 to 100 µM
CNC(=O)c1cc(C(=O)NCCCC2CCNCC2(F)F)cc2c1O[C@@H](C)[C@@H]2c1ccccc1 (single isomer, unassigned) [Example 198, (2S,3R)-N5-(3-((S*)-3,3-difluoropiperidin-4-yl)propyl)-N7,2-dimethyl-3-phenyl-2,3-dihydrobenzofuran-5,7-dicarboxamide] | 1 to 100 µM
CNC(=O)c1cc(C(=O)N[C@H]2[C@@H]3COC[C@@H]32)cc2c1O[C@H](C)[C@H]2c1cccc(OCCO)c1 [Example 85, (2R,3S)—N^5-((1R,5S,6R)-3-Oxabicyclo[3.1.0]hexan-6-yl)-3-(3-(2-hydroxyethoxy)phenyl)-N^7,2-dimethyl-2,3-dihydrobenzofuran-5,7-dicarboxamide] | 1 to 100 µM
CNC(=O)c1cc(C(=O)Nc2nncn2C)cc2c1O[C@H](CF)[C@H]2c1ccccc1 [Example 172] | 1 to 100 µM
CNC(=O)c1cc(C(=O)N[C@@H]2C[C@H]2CO)cc2c1O[C@@H](CF)[C@@H]2c1ccccc1 [Example 184, (2R,3R)-2-(fluoromethyl)-N^5-((1R,2R)-2-(hydroxymethyl)cyclopropyl)-N^7-methyl-3-phenyl-2,3-dihydrobenzofuran-5,7-dicarboxamide] | 1 to 100 µM
CCNC(=O)c1cc(C(=O)NC)c2c(c1)[C@@H](c1ccccc1)[C@H](C)O2 [Example 101, (2S,3R)-N^5-ethyl-N^7,2-dimethyl-3-phenyl-2,3-dihydrobenzofuran-5,7-dicarboxamide] | 1 to 100 µM
CNC(=O)c1cc(C(=O)N[C@H]2[C@@H]3CN(C(C)=O)C[C@@H]32)cc2c1O[C@@H](CF)[C@@H]2c1ccccc1 [Example 190, (2R,3R)-N^5-((1R,5S,6s)-3-acetyl-3-azabicyclo[3.1.0]hexan-6-yl)-2-(fluoromethyl)-N^7-methyl-3-phenyl-2,3-dihydrobenzofuran-5,7-dicarboxamide] | 1 to 100 µM
CNC(=O)c1cc(C(=O)N[C@H]2C[C@@H]2CCO)cc2c1O[C@@H](CF)[C@@H]2c1ccccc1 (mixture of isomers) [Example 197, 2R,3R)-2-(fluoromethyl)-N^5-((trans)-2-(2-hydroxyethyl)cyclopropyl)-N^7-methyl-3-phenyl-2,3-dihydrobenzofuran-5,7-dicarboxamide (diastereomeric mixture)] | 1 to 100 µM
CNC(=O)c1cc(C(=O)NCC(C)O)cc2c1O[C@@H](C)[C@@H]2c1ccccc1 (stereo partly drawn) [Example 107, (2S,3R)-N^5-(2-hydroxypropyl)-N^7,2-dimethyl-3-phenyl-2,3-dihydrobenzofuran-5,7-dicarboxamide] | 1 to 100 µM
CNC(=O)c1cc(C(=O)Nc2ncn(C)n2)cc2c1O[C@@H](CF)[C@@H]2c1ccccc1 [Example 192, (2R,3R)-2-(fluoromethyl)-N^7-methyl-N^5-(1-methyl-1H-1,2,4-triazol-3-yl)-3-phenyl-2,3-dihydrobenzofuran-5,7-dicarboxamide] | 1 to 100 µM
CNC(=O)c1cc(C(=O)N[C@H]2[C@@H]3COC[C@@H]32)cc2c1O[C@@H](C)[C@@H]2c1cccc(OCCOC)c1 [Example 201, (2S,3R)-N^5-((1R,5S,6r)-3-oxabicyclo[3.1.0]hexan-6-yl)-3-(3-(2-methoxyethoxy)phenyl)-N^7,2-dimethyl-2,3-dihydrobenzofuran-5,7-dicarboxamide] | 1 to 100 µM
CNC(=O)c1cc(C(=O)NCCc2cccnc2)cc2c1O[C@@H](C)[C@@H]2c1cccc(OCCO)c1 [Example 183, (2S,3R)-3-(3-(2-hydroxyethoxy)phenyl)-N^7,2-dimethyl-N^5-(2-(pyridin-3-yl)ethyl)-2,3-dihydrobenzofuran-5,7-dicarboxamide] | 1 to 100 µM
CNC(=O)c1cc(C(=O)NCCn2cnnc2)cc2c1O[C@H](CF)[C@H]2c1ccccc1 (relative stereo) [Example 133, (Trans)-N^5-(2-(4H-1,2,4-triazol-4-yl)ethyl)-2-(fluoromethyl)-N^7-methyl-3-phenyl-2,3-dihydrobenzofuran-5,7-dicarboxamide] | 1 to 100 µM
CNC(=O)c1cc(C(=O)N[C@H]2[C@@H]3CN(C(C)=O)C[C@@H]32)cc2c1O[C@@H](C)[C@@H]2c1ccccc1 [Example 189, (2S,3R)-N^5-((1R,5S,6s)-3-acetyl-3-azabicyclo[3.1.0]hexan-6-yl)-N^7,2-dimethyl-3-phenyl-2,3-dihydrobenzofuran-5,7-dicarboxamide] | 1 to 100 µM
CNC(=O)c1cc(C(=O)NC2CC2)cc2c1O[C@H](C)[C@@H]2c1ccccc1 [Example 103, (2R,3R)-N^5-cyclopropyl-N^7,2-dimethyl-3-phenyl-2,3-dihydrobenzofuran-5,7-dicarboxamide] | 1 to 100 µM
CNC(=O)c1cc(C(=O)Nc2cn[nH]c2)cc2c1O[C@@H](CF)[C@@H]2c1ccccc1 [Example 186, (2R,3R)-2-(fluoromethyl)-N^7-methyl-3-phenyl-N^5-(1H-pyrazol-4-yl)-2,3-dihydrobenzofuran-5,7-dicarboxamide] | 1 to 100 µM
CNC(=O)c1cc(C(=O)NCC(C)O)cc2c1O[C@@H](C)[C@H]2c1ccccc1 (stereo partly drawn) [Example 7, (2S,3S)—N^5-(2-hydroxypropyl)-N^7,2-dimethyl-3-phenyl-2,3-dihydrobenzofuran-5,7-dicarboxamide] | 1 to 100 µM
CNC(=O)c1cc(C(=O)N[C@H]2[C@@H]3COC[C@@H]32)cc2c1O[C@@H](C)[C@@H]2c1cccc(OCCO)c1 [Example 181, (2S,3R)-N^5-((1R,5S,6r)-3-oxabicyclo[3.1.0]hexan-6-yl)-3-(3-(2-hydroxyethoxy)phenyl)-N^7,2-dimethyl-2,3-dihydrobenzofuran-5,7-dicarboxamide] | 1 to 100 µM
CNC(=O)c1cc(C(=O)N[C@@H]2C[C@H]2CCO)cc2c1O[C@@H](CF)[C@@H]2c1ccccc1 (mixture of isomers) [Example 196, (2R,3R)-2-(fluoromethyl)-N^5-((trans)-2-(2-hydroxyethyl)cyclopropyl)-N^7-methyl-3-phenyl-2,3-dihydrobenzofuran-5,7-dicarboxamide (diastereomeric mixture)] | 1 to 100 µM
CNC(=O)c1cc(C(=O)Nc2nncn2C)cc2c1O[C@@H](CF)[C@@H]2c1ccccc1 [Example 195, (2R,3R)-2-(fluoromethyl)-N^7-methyl-N^5-(4-methyl-4H-1,2,4-triazol-3-yl)-3-phenyl-2,3-dihydrobenzofuran-5,7-dicarboxamide] | 1 to 100 µM
CNC(=O)c1cc(C(=O)Nc2cn(C)nn2)cc2c1O[C@@H](CF)[C@@H]2c1ccccc1 [Example 194, (2R,3R)-2-(fluoromethyl)-N^7-methyl-N^5-(1-methyl-1H-1,2,3-triazol-4-yl)-3-phenyl-2,3-dihydrobenzofuran-5,7-dicarboxamide] | 1 to 100 µM
CNC(=O)c1cc(C(=O)Nc2cnn(C)c2)cc2c1O[C@@H](CF)[C@@H]2c1ccccc1 [Example 187, (2R,3R)-2-(fluoromethyl)-N^7-methyl-N^5-(1-methyl-1H-pyrazol-4-yl)-3-phenyl-2,3-dihydrobenzofuran-5,7-dicarboxamide] | 1 to 100 µM
CNC(=O)c1cc(C(=O)Nc2nnn(C)n2)cc2c1O[C@H](CF)[C@H]2c1ccccc1 [Example 174, (2S,3S)-2-(Fluoromethyl)-N^7-methyl-N^5-(2-methyl-2H-tetrazol-5-yl)-3-phenyl-2,3-dihydrobenzofuran-5,7-dicarboxamide] | 1 to 100 µM
CNC(=O)c1cc(C(=O)NC2C[C@H]2CCO)cc2c1O[C@H](CF)[C@H]2c1ccccc1 (stereo partly drawn) [Example 132, (2S,3S)-2-(Fluoromethyl)-N^5-((trans)-2-(2-hydroxyethyl)cyclopropyl)-N^7-methyl-3-phenyl-2,3-dihydrobenzofuran-5,7-dicarboxamide] | 1 to 100 µM
CCC(=O)N1C[C@@H]2[C@H](C1)[C@H]2NC(=O)c1cc(C(=O)NC)c2c(c1)[C@@H](c1ccccc1)[C@H](CF)O2 [Example 164, (2R,3R)-2-(Fluoromethyl)-N^7-methyl-3-phenyl-N^5-((1R,5S,6s)-3-propionyl-3-azabicyclo[3.1.0]hexan-6-yl)-2,3-dihydrobenzofuran-5,7-dicarboxamide] | 1 to 100 µM
CNC(=O)c1cc(C(=O)Nc2ccnnc2)cc2c1O[C@@H](CF)[C@@H]2c1ccccc1 [Example 193, (2R,3R)-2-(fluoromethyl)-N^7-methyl-3-phenyl-N^5-(pyridazin-4-yl)-2,3-dihydrobenzofuran-5,7-dicarboxamide] | 1 to 100 µM
